The numbers were not newly measured in US8450380B2, “Method for implementing active ingredients in order to protect them and optimize their delivery method” (Coatex S.A.S., priority 2007, dated 2013), which cites them from elsewhere.

For this series the following is noted: general statement.

`O=c1c2cc(Cl)ccc2[nH]c2cc3c(=O)c4cc(Cl)ccc4[nH]c3cc12` [Magenta Cinquasia RT-235-D, 2,9 dichloro-5,12 dihydroquino [2,3-b] acridine-7,14 dione]: the Solubility result is given as “non-hydrosoluble”.
